The values below come from patent US20250171431A1, “HETEROCYCLIC INHIBITORS OF IGF-1R FOR TREATMENT OF DISEASE” (HORIZON THERAPEUTICS IRELAND DAC, priority 2023, published 2025).

Assay [1] addresses T1, IGF-1R (Homo sapiens (Human), UniProt P08069). The experiment in a line: Example B-1: IGF-1R Assay (PC3 cells, IGF1 stimulation, AlphaLISA). Conditions: 200 ng/mL IGF1 stimulation, read-out: Biological Activity against IGF-1R IC50. Format: cell-based. The method in brief: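 PC3 cells were serum-starved 2 h, treated with serially diluted compounds for 2 h, then stimulated with IGF1 (200 ng/mL final) for 30 min. Lysates were read by AlphaLISA; % inhibition was calculated relative to vehicle and EC80 controls, with IC50 values binned into ranges.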
Background: Bead proximity is the source of the signal in Alpha formats.
Target sequence in this assay (P08069 31-1367): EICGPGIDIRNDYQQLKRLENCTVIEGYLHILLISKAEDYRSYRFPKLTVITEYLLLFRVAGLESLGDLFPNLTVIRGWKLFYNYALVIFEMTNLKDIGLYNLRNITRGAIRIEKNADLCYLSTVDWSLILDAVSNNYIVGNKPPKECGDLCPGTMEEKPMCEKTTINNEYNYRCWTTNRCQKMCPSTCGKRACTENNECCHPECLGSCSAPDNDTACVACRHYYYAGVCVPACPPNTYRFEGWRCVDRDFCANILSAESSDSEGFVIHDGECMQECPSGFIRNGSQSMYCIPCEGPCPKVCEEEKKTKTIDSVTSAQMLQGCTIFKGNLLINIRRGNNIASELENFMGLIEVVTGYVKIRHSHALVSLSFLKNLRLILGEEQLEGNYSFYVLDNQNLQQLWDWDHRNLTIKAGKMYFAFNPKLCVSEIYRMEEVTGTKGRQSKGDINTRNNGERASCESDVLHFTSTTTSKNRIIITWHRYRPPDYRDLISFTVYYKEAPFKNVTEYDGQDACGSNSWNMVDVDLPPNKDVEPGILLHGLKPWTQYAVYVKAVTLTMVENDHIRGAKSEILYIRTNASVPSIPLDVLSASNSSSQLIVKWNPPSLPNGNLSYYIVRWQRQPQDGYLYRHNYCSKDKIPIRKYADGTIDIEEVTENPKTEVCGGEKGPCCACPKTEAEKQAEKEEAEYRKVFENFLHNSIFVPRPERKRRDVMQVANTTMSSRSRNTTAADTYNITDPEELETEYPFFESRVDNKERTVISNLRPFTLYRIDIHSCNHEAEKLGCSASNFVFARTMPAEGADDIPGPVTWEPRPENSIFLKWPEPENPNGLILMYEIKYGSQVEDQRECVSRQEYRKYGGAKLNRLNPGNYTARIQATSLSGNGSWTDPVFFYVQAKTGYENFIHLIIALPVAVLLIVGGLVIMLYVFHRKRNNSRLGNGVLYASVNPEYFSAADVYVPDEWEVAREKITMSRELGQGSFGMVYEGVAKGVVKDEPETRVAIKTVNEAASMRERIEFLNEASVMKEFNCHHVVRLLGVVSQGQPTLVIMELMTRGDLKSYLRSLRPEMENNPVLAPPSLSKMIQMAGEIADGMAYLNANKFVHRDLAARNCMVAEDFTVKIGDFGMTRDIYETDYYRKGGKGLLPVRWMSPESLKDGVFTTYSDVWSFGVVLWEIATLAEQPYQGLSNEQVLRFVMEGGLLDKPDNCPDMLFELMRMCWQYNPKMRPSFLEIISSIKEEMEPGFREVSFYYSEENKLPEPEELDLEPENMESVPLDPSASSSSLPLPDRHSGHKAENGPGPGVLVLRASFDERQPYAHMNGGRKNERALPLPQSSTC

Assay [2] has as its target T1, IGF-1R. In words: Example B-2: IGF-1R Assay (PathHunter cell lines, EC80 agonist challenge). The assay is classed as cell-based. Conditions: read-out: IC50 (Biological Activity against IGF-1R). As for the experimental part: PathHunter cell lines were expanded from freezer stocks according to standard procedures. Cells were seeded in a total volume of 20 μL into white walled, 384-well microplates and incubated for the appropriate time prior to testing.
Cells are pre-incubated with compound followed by EC80 agonist challenge as follows: • 1. Intermediate dilution of sample stocks was performed to generate 5× sample in assay buffer. • 2. 5 μL of 5× sample was added to cells and incubated at 37° C. for 60 minutes. Vehicle concentration was 1%. • 3. 5 μL of 6×EC80 agonist in assay buffer was added to the cells and incubated at room temperature for 3 hours.
Assay signal was generated through a single addition of 12.5 or 15 μL (50% v/v) of PathHunter Detection reagent cocktail for agonist and antagonist assays respectively, followed by a one hour incubation at room temperature. Microplates were read following signal generation with a PerkinElmer Envision™ instrument for chemilumine-scent signal detection.
Compound activity was analyzed using CBIS data analysis suite (ChemInnovation, CA). Percentage inhibition was calculated using the following formula: % Inhibition=100%×(1−(mean RLU of test sample−mean RLU of vehicle control)/(mean RLU of EC80 control−mean RLU of vehicle control)). The activity for representative examples of the invention is shown in the following table, wherein A: IC50≤500 nM; B: 500 nM<IC50≤2 μM; C: […]≤10 μM; D: IC50>[…].
Target sequence in this assay (P08069 31-1367, species assumed): as the sequence (P08069 31-1367) above

With `CN(C)CC1COc2ccc(Nc3nccc(Nc4cnc5ccccc5c4)n3)cc2O1` (stereo not shown) [Compound 140, N2-(3-((dimethylamino)methyl)-2,3-dihydrobenzo[b][1,4]dioxin-6-yl)-N4-(quinolin-3-yl)pyrimidine-2,4-diamine], the IC50 in assay [1] and in assay [2] was ≤ 500 nM throughout.
With `CN(C)C[C@H]1COc2cc(Nc3nccc(Nc4cnc5ccc(Cl)cc5c4)n3)ccc2O1` [Compound 144, (S)—N4-(6-chloroquinolin-3-yl)-N2-(2-((dimethylamino)methyl)-2,3-dihydrobenzo[b][1,4]dioxin-6-yl)pyrimidine-2,4-diamine], the IC50 in assay [1] and in assay [2] was ≤ 500 nM throughout.
As to `CN(C)CC(=O)N1CCc2cc(Nc3nccc(Nc4cnc5ccc(Cl)cc5c4)n3)ccc21` [Compound 146, 1-(5-((4-((6-chloroquinolin-3-yl)amino)pyrimidin-2-yl)amino)indolin-1-yl)-2-(dimethylamino)ethan-1-one], the IC50 in assay [1] and in assay [2] was ≤ 500 nM throughout.
As to `CN(C)CC(=O)N1CCc2ncc(Nc3nccc(Nc4cnc5ccc(Cl)cc5c4)n3)cc21` [Compound 141, 1-(6-((4-((6-chloroquinolin-3-yl)amino)pyrimidin-2-yl)amino)-2,3-dihydro-1H-pyrrolo[3,2-b]pyridin-1-yl)-2-(dimethylamino)ethan-1-one], the IC50 in assay [1] and in assay [2] was ≤ 500 nM each time.
Turning to `CN(C)CC1COc2ccc(Nc3nccc(Nc4cnc5ccc(Cl)cc5c4)n3)cc2O1` (stereo not shown) [Compound 142, N4-(6-chloroquinolin-3-yl)-N2-(3-((dimethylamino)methyl)-2,3-dihydrobenzo[b][1,4]dioxin-6-yl)pyrimidine-2,4-diamine], the IC50 in assay [1] and in assay [2] was 500 to 2000 nM in each case.
`COc1cc(Nc2nccc(Nc3cnc4c(c3)CCC3(CCC3)C4)n2)ccc1O[C@H]1C[C@H](N(C)C)C1` [Compound 77, 4-(6′,8′-dihydro-5′H-spiro[cyclobutane-1,7′-quinolin]-3′-ylamino)-2-{3-methoxy-4-[(1r,3r)-3-(dimethylamino)cyclobutoxy]phenylamino}pyrimidine]: the IC50 in assay [1] and in assay [2] was ≤ 500 nM in each case.
For `c1ccc2ncc(Nc3ccnc(Nc4ccc5ccn(CC6CCCC6)c5c4)n3)cc2c1` [Compound 502, 2-[1-(cyclopentylmethyl)-6-indolylamino]-4-(3-quinolylamino)pyrimidine], the IC50 in assay [1] and in assay [2] was ≤ 500 nM each time.
As to `COc1cc([C@H]2CC[C@](C)(O)CC2)ccc1Nc1nccc(Nc2cc3cccc(F)c3[nH]c2=O)n1` [Compound 215, 8-fluoro-3-(2-{2-methoxy-4-[(1s,4s)-4-hydroxy-4-methylcyclohexyl]phenylamino}-4-pyrimidinylamino)-1,2-dihydro-2-quinolinone], the IC50 in assay [1] and in assay [2] was ≤ 500 nM each time.
Turning to `CN(C)CC(=O)N1CCc2ccc(Nc3nccc(Nc4cnc5ccc(Br)cc5c4)n3)cc21` [Compound 130, 1-(6-((4-((6-bromoquinolin-3-yl)amino)pyrimidin-2-yl)amino)indolin-1-yl)-2-(dimethylamino)ethan-1-one], the IC50 in assay [1] and in assay [2] was ≤ 500 nM in each case.
Regarding `COc1cc(Nc2nccc(Nc3cnc4cc(F)c(F)cc4c3)n2)c(Cl)cc1O[C@H]1C[C@@H](N(C)C)C1` [Compound 153, N2-(2-chloro-4-((1s,3s)-3-(dimethylamino)cyclobutoxy)-5-methoxyphenyl)-N4-(6,7-difluoroquinolin-3-yl)pyrimidine-2,4-diamine], the IC50 in assay [1] and in assay [2] was ≤ 500 nM throughout.
`CN(C)CC1COc2cc(Nc3nccc(Nc4cnc5ccc(Cl)cc5c4)n3)cnc2O1` (stereo not shown) [Compound 177, 4-(6-chloro-3-quinolylamino)-2-{3-[(dimethylamino)methyl]-2,3-dihydro-1,4-dioxa-5-aza-7-naphthylamino}pyrimidine]: the IC50 in assay [1] and in assay [2] was ≤ 500 nM each time.
With `COc1cc(Nc2nccc(Nc3cnc4c(F)c(F)ccc4c3)n2)cnc1O[C@H]1C[C@@H](N(C)C)C1` [Compound 291, 4-(7,8-difluoro-3-quinolylamino)-2-{5-methoxy-6-[(1s,3s)-3-(dimethylamino)cyclobutoxy]-3-pyridylamino}pyrimidine], the IC50 was ≤ 500 nM in assay [1] and 500 to 2000 nM in assay [2].
As for `COc1cc(Nc2nccc(Nc3cnc4ccccc4c3)n2)ccc1N1CCC(N2CCOCC2)CC1` [Compound 3, 2-[3-methoxy-4-(4-morpholino-1-piperidyl)phenylamino]-4-(3-quinolylamino)pyrimidine], the IC50 in assay [1] and in assay [2] was ≤ 500 nM in each case.
On to `COc1nc(C2CCOCC2)ccc1Nc1nccc(Nc2cc3cccc(F)c3[nH]c2=O)n1` [Compound 224, 8-fluoro-3-{2-[2-methoxy-6-(tetrahydro-2H-pyran-4-yl)-3-pyridylamino]-4-pyrimidinylamino}-1,2-dihydro-2-quinolinone], for which the IC50 in assay [1] was ≤ 500 nM; in assay [2] it was 500 to 2000 nM.
`COc1cc(Nc2nccc(Nc3cnc4c(c3)OCCO4)n2)ccc1O[C@H]1C[C@H](N(C)C)C1` [Compound 357, 4-(2,3-dihydro-1,4-dioxa-5-aza-7-naphthylamino)-2-{3-methoxy-4-[(1r,3r)-3-(dimethylamino)cyclobutoxy]phenylamino}pyrimidine]: the IC50 in assay [1] and in assay [2] was ≤ 500 nM in each case.
On to `COc1cc(Nc2nccc(Nc3cnc4c(c3)OCCO4)n2)ccc1O[C@H]1C[C@@H](N(C)C)C1` [Compound 200, 4-(2,3-dihydro-1,4-dioxa-5-aza-7-naphthylamino)-2-{3-methoxy-4-[(1s,3s)-3-(dimethylamino)cyclobutoxy]phenylamino}pyrimidine], for which the IC50 in assay [1] and in assay [2] was ≤ 500 nM throughout.
For `COc1cc(Nc2nccc(Nc3cnc4cc(F)c(F)cc4c3)n2)ccc1O[C@H]1C[C@@H](N(C)C)C1` [Compound 115, 4-(6,7-difluoro-3-quinolylamino)-2-{3-methoxy-4-[(1s,3s)-3-(dimethylamino)cyclobutoxy]phenylamino}pyrimidine], the results for the IC50 in assay [1] and in assay [2] were ≤ 500 nM and 500 to 2000 nM, respectively.
`COc1cc(N2CCN(C)CC2)ccc1Nc1nccc(Nc2cnc3ccc(Br)cc3c2)n1` [Compound 466, 4-(6-bromo-3-quinolylamino)-2-[2-methoxy-4-(4-methyl-1-piperazinyl)phenylamino] pyrimidine]: the IC50 was ≤ 500 nM in assay [1] and 500 to 2000 nM in assay [2].
In the case of `COc1cc(Nc2nccc(Nc3cnc4ccc(Cl)nc4c3)n2)ccc1O[C@H]1C[C@@H](N(C)C)C1` [Compound 10, 4-(6-chloro-1,5-diaza-3-naphthylamino)-2-{3-methoxy-4-[(1s,3s)-3-(dimethylamino)cyclobutoxy]phenylamino}pyrimidine], the results for the IC50 in assay [1] and in assay [2] were ≤ 500 nM and 500 to 2000 nM, respectively.
Take `COc1cc(N2CCNC3(CC3)C2)ncc1Nc1nccc(Nc2cc3cccc(F)c3[nH]c2=O)n1` [Compound 221, 3-(2-{6-(4,7-diaza-7-spiro[2.5]octyl)-4-methoxy-3-pyridylamino}-4-pyrimidinylamino)-8-fluoro-1,2-dihydro-2-quinolinone]: the figures for the IC50 in assay [1] and in assay [2] were ≤ 500 nM and 500 to 2000 nM, respectively.

The IC50 is the concentration at which inhibition is half-maximal.
